Measured values reported in patent publication US20260159525A1, “TRICYCLIC HETEROCYCLES” (Merck Patent GmbH, priority 2021, published 2026).
pIC50: −log10 of the molar value.

system: YAP-TEAD interaction; test: SK-HEP-1 reporter assay (8x TEAD responsive elements driving NanoLuc luciferase); assay type: cell-based; details: Homo sapiens, SK-HEP1, SK-HEP-1 cells, 24 hour incubation, group symbols
Method: To identify inhibitors of YAP-TEAD interaction, 8× TEAD responsive elements driving the NanoLuc® luciferase gene were stably integrated into SK-HEP-1 cells (ECACC #: 91091816).
For the assay, cells were treated in duplicates with the test compounds in a 10-point dose, with the top concentration starting at 30 μM (final concentration in assay). After a 24 hour incubation at 37° C., 95% rH, and 5% CO2, a luciferase substrate/lysis reagent mix (NanoGlo™, Promega) was added to the cells, allowing the quantification of cellular luciferase activity.
Cell Media: The cells were cultured in the following media: MEM, +10% FBS, +1× GlutaMAX, +1 mM Sodium-Pyruvate, +100 μM Non-essential amino acids, +0.1 mg/ml Hygromycin. The media used for the assay was: MEM (w/o Phenol Red), +10% FBS, +1× GlutaMAX, +1 mM Sodium-Pyruvate, +100 μM Non-essential amino acids, +0.5% Pen/Strep
Reagents: The reagents used are listed below:
Cell culture: The cells were examined using an inverted microscope to check for health and cell density. To dissociate adherent cells, the monolayer of cells was washed once with pre-warmed PBS. After removing the PBS, 3 ml pre-warmed Accutase® was added to a F75 flask, dispersed evenly and the flask was allowed to sit in incubator for ˜4-5 minutes.
When a single cell suspension was obtained, 7 ml of prewarmed growth media was added and resuspended with the cells. The cell suspension was transferred to a sterile 15 ml conical centrifuge tube, and spun for 5 min at 300×g, RT. The supernatant was discarded and the pellet was resuspended in 10 ml of pre-warmed growth media.
The total cell count was determined, and 20 μl of the desired cell number was added to each well of a 384 well plate using a Multidrop Combi. The plates were then incubated for 24 hours at 37° C., 95% rH, and 5% CO2.
Compound treatment: 24 hours after seeding, the cells were treated with compounds.
A 1:333 dilution of compounds, diluted in DMSO, was made to get a final concentration of 0.3% DMSO per well. To transfer the compounds to the assay plate, 120 nl was shot from Labcyte low dead volume plates to the cell plates containing 20 μl media/well with the ECHO 555 liquid handling system. After treatment, the cells were fed with 20 μl fresh pre-warmed assay media using a Multidrop combi.
The assay plates were then incubated for another 24 h at 37° C., 95% rH, and 5% CO2.
Luciferase readout: 24 h after treatment, the plates were taken out of the incubator and were allowed to equilibrate to RT. 30 μl of NanoGlo® reagent was added to the plates in the dark. Plates were shaken for 20 min on a Teleshake (˜1500 rpm) in the dark. The luminescence was then measured using an EnVision microplate reader. The IC50 values were generated using Genedata Screener®.

Row | SMILES | pIC50
1 | Cn1cc2c3cc(C(=O)O)sc3n(-c3ccc(C(F)(F)F)cn3)c2n1 [Compound 53, 4-methyl-7-[5-(trifluoromethyl)pyridin-2-yl]-9-thia-4,5,7-triazatricyclo[6.3.0.0^2,6]undeca-1(8),2,5,10-tetraene-10-carboxylic acid] | 8.00 to 9.00
2 | Cn1nc2c3sc(C(=O)NC4CC4)cc3n(-c3ccc(C(F)(F)F)cc3)c2n1 [Compound 6, N-cyclopropyl-4-methyl-7-[4-(trifluoromethyl)phenyl]-11-thia-3,4,5,7-tetraazatricyclo[6.3.0.0^2,6]undeca-1(8),2,5,9-tetraene-10-carboxamide] | 5.00 to 7.00
3 | Cn1nc2c3sc(C(N)=O)cc3n(-c3ccc(OC(F)(F)F)cc3)c2n1 [Compound 38, 4-methyl-7-[4-(trifluoromethoxy)phenyl]-11-thia-3,4,5,7-tetraazatricyclo[6.3.0.0^2,6]undeca-1(8),2,5,9-tetraene-10-carboxamide] | 5.00 to 7.00
4 | Cn1cc2c3cc(C(=O)O)sc3n(-c3ccc(C(F)(F)F)nc3)c2n1 [Compound 81, 4-methyl-7-[6-(trifluoromethyl)pyridin-3-yl]-9-thia-4,5,7-triazatricyclo[6.3.0.0^2,6]undeca-1(8),2,5,10-tetraene-10-carboxylic acid] | 7.00 to 8.00
5 | Cn1cc2c3cc(C(=O)O)sc3n(-c3ccc(OC(F)(F)F)cc3)c2n1 [Compound 54, 4-methyl-7-[4-(trifluoromethoxy)phenyl]-9-thia-4,5,7-triazatricyclo[6.3.0.0^2,6]undeca-1(8),2,5,10-tetraene-10-carboxylic acid] | 8.00 to 9.00
6 | Cn1nc2c3sc(C(=O)NC4CC4)cc3n(-c3ccc(OC(F)(F)F)cc3)c2n1 [Compound 30, N-cyclopropyl-4-methyl-7-[4-(trifluoromethoxy)phenyl]-11-thia-3,4,5,7-tetraazatricyclo[6.3.0.0^2,6]deca-1(8),2,5,9-tetraene-10-carboxamide] | 5.00 to 7.00
7 | CNC(=O)c1cc2c(s1)c1cn(C)nc1n2C[C@H]1C[C@@H](C(F)(F)F)C1 [Compound 39, N,10-dimethyl-7-{[(1s,3s)-3-(trifluoromethyl)cyclobutyl]methyl}-3-thia-7,9,10-triazatricyclo[6.3.0.0^2,6]undeca-1(11),2(6),4,8-tetraene-4-carboxamide] | 5.00 to 7.00
8 | Cn1cc2c3cc(C(=O)NCC4CNC4)sc3n(-c3ccc(C(F)(F)F)cc3)c2n1 [Compound 60, N-[(azetidin-3-yl)methyl]-4-methyl-7-[4-(trifluoromethyl)phenyl]-9-thia-4,5,7-triazatricyclo[6.3.0.0^2,6]undeca-1(8),2,5,10-tetraene-10-carboxamide] | 5.00 to 7.00
9 | Cn1nc2c3cc(C(=O)N[C@H](CO)c4ccccn4)sc3n(-c3ccc(C(F)(F)F)cc3)c2n1 [Compound 109, N-[(1S)-2-hydroxy-1-(pyridin-2-yl)ethyl]-4-methyl-7-[4-(trifluoromethyl)phenyl]-9-thia-3,4,5,7-tetraazatricyclo[6.3.0.0^2,6]undeca-1(8),2,5,10-tetraene-10-carboxamide] | 5.00 to 7.00
10 | CNC(=O)c1cc2c(s1)c1nn(C)nc1n2-c1ccc(OC(F)(F)F)cc1 [Compound 29, N,4-dimethyl-7-[4-(trifluoromethoxy)phenyl]-11-thia-3,4,5,7-tetraazatricyclo[6.3.0.0^2,6]undeca-1(8),2,5,9-tetraene-10-carboxamide] | < 5.00
11 | Cn1cc2c3cc(C#N)sc3n(-c3ccc(C(F)(F)F)cc3)c2n1 [Compound 94, 4-methyl-7-[4-(trifluoromethyl)phenyl]-9-thia-4,5,7-triazatricyclo[6.3.0.0^2,6]undeca-1(8),2,5,10-tetraene-10-carbonitrile] | 5.00 to 7.00

Next, values leading:

Row | pIC50 | SMILES
12 | < 5.00 | Cn1cc2c3sc(C(=O)NC4CC4)cc3n(-c3ccc(C(F)(F)F)cc3)c2n1 [compound 12]
13 | 5.00 to 7.00 | CC[C@H](O)CNC(=O)c1cc2c3cn(C)nc3n(-c3ccc(C(F)(F)F)cc3)c2s1 [Compound 83, N-[(2S)-2-hydroxybutyl]-4-methyl-7-[4-(trifluoromethyl)phenyl]-9-thia-4,5,7-triazatricyclo[6.3.0.0^2,6]undeca-1(8),2,5,10-tetraene-10-carboxamide]
14 | < 5.00 | COCC[C@H](CO)NC(=O)c1cc2c3cn(C)nc3n(-c3ccc(C(F)(F)F)cc3)c2s1 (single isomer, unassigned) [Compound 58]
15 | < 5.00 | Cn1cc2c3sc(C(=O)NCCO)cc3n(-c3ccc(C(F)(F)F)cc3)c2n1 [Compound 13, N-(2-hydroxyethyl)-10-methyl-7-[4-(trifluoromethyl)phenyl]-3-thia-7,9,10-triazatricyclo[6.3.0.0^2,6]undeca-1(11),2(6),4,8-tetraene-4-carboxamide]
16 | 5.00 to 7.00 | CNC(=O)c1cc2c(s1)c1nc(C)sc1n2-c1ccc(OC(F)(F)F)cc1 [Compound 26, N,4-dimethyl-7-[4-(trifluoromethoxy)phenyl]-5,11-dithia-3,7-diazatricyclo[6.3.0.0^2,6]undeca-1(8),2(6),3,9-tetraene-10-carboxamide]
17 | 5.00 to 7.00 | Cn1cc2c3sc(C(=O)O)cc3n(CCC(C)(C)C(F)(F)F)c2n1 [Compound 24, 10-methyl-7-(4,4,4-trifluoro-3,3-dimethylbutyl)-3-thia-7,9,10-triazatricyclo[6.3.0.0^2,6]undeca-1(11),2(6),4,8-tetraene-4-carboxylic acid]

same assay, conditions: Homo sapiens, SK-HEP1, SK-HEP-1 cells, 24 hour incubation, number, or n.d. (x) = not detectable below threshold x

Row | SMILES | pIC50
18 | Cn1cc2c3cc(C(=O)N[C@@H](CO)c4ccccn4)sc3n(-c3ccc(C(F)(F)F)cn3)c2n1 [Compound 113, N-[(1R)-2-hydroxy-1-(pyridin-2-yl)ethyl]-4-methyl-7-[5-(trifluoromethyl)pyridin-2-yl]-9-thia-4,5,7-triazatricyclo[6.3.0.0^2,6]undeca-1(8),2,5,10-tetraene-10-carboxamide] | < 5.02
19 | Cn1cc2c3cc(C(=O)NC[C@@H](O)CO)sc3n(-c3ccc(C(F)(F)F)cc3)c2n1 (single isomer, unassigned) [Compound 128] | < 4.52
20 | Cn1ccc(C(CO)NC(=O)c2cc3c4cn(C)nc4n(-c4ccc(C(F)(F)F)cn4)c3s2)n1 (centres unmarked) [Compound 116, N-[2-hydroxy-1-(1-methyl-1H-pyrazol-3-yl)ethyl]-4-methyl-7-[5-(trifluoromethyl)pyridin-2-yl]-9-thia-4,5,7-triazatricyclo[6.3.0.0^2,6]undeca-1(8),2,5,10-tetraene-10-carboxamide] | < 4.52
21 | Cn1cc2c3cc(C(=O)NC(CO)C4CCC4)sc3n(-c3ccc(C(F)(F)F)cc3)c2n1 (racemic) [Compound 57, N-(1-cyclobutyl-2-hydroxyethyl)-4-methyl-7-[4-(trifluoromethyl)phenyl]-9-thia-4,5,7-triazatricyclo[6.3.0.0^2,6]undeca-1(8),2,5,10-tetraene-10-carboxamide] | < 5.02
22 | Cn1ccc([C@H](CO)NC(=O)c2cc3c4cn(C)nc4n(-c4ccc(C(F)(F)F)cc4)c3s2)n1 (single isomer, unassigned) [Compound 131] | < 7.02
23 | C[C@@H](CO)NC(=O)c1cc2c3nn(C)nc3n(-c3ccc(C(F)(F)F)cc3)c2s1 [Compound 110, N-[(2S)-1-hydroxypropan-2-yl]-4-methyl-7-[4-(trifluoromethyl)phenyl]-9-thia-3,4,5,7-tetraazatricyclo[6.3.0.0^2,6]undeca-1(8),2,5,10-tetraene-10-carboxamide] | < 4.52

More lines, now with the values ahead:

Row | pIC50 | SMILES
24 | < 5.02 | Cn1cc2c3cc(C(=O)N[C@@H](CO)C4CCC4)sc3n(-c3ccc(C(F)(F)F)cc3)c2n1 (single isomer, unassigned) [Compound 55]
25 | < 6.52 | C[C@H](CO)NC(=O)c1cc2c3cn(C)nc3n(-c3ccc(C(F)F)cn3)c2s1 [Compound 132, 7-[5-(difluoromethyl)pyridin-2-yl]-N-[(2R)-1-hydroxypropan-2-yl]-4-methyl-9-thia-4,5,7-triazatricyclo[6.3.0.0^2,6]undeca-1(8),2,5,10-tetraene-10-carboxamide]
26 | 6.01 | Cn1cc2c3cc(C(N)=O)sc3n(-c3ccc(C(F)(F)F)cc3)c2n1 [Compound 89, 4-methyl-7-[4-(trifluoromethyl)phenyl]-9-thia-4,5,7-triazatricyclo[6.3.0.0^2,6]undeca-1(8),2,5,10-tetraene-10-carboxamide]
